The test system of the test is PC-12. The test is described as follows: Cytoprotective activity against hydrogen peroxide-induced cell damage in rat PC12 cells assessed as cell viability treated 2 hrs before hydrogen peroxide challenge by MTT assay. It is filed as functional, cell-based.

The source made the active and inactive calls. The rule behind the calls is not given here.

Turning to `COCC1=CO[C@]2(O[C@@H]3O[C@H](CO)[C@@H](O)[C@H](O)[C@H]3O)C[C@H]1C(=O)C=C2C`, the outcome was Active.
For `COC1O[C@@]2(C)CC(=O)[C@@H]3C[C@]2(O[C@@H]2O[C@H](CO)[C@@H](O)[C@H](O)[C@H]2O)[C@]13CO` (some centres undefined) the value was “Active”; for `C=C1C(OC)O[C@]2(O[C@@H]3O[C@H](CO)[C@@H](O)[C@H](O)[C@H]3O)C[C@H]1C(=O)C=C2C` (some centres undefined), “Active”.
In the case of `CC1=CC(=O)[C@@H]2C[C@@]1(O[C@@H]1O[C@H](CO)[C@@H](O)[C@H](O)[C@H]1O)OC=C2CO` it was “Active”.
